Assay results taken from patent US10137199B2, “Thiolated hyaluronan-based hydrogels cross-linked using oxidized glutathione” (BioTime, Inc., priority 2013, dated 2018).

How the values were obtained:
[1] = Gel formation of CMHA-S and Gelin-S with disulfide containing small molecules; type: physicochemical; conditions: thiolated biopolymers CMHA-S and Gelin-S
Protocol: Initially we tested whether GSSG would be a suitable reactant for a thiol-disulfide exchange reaction with thiolated biopolymers CMHA-S and Gelin-S to form a two-component (CMHA/Gelin/GSSG) gel with no additional crosslinking molecule (FIG. 1 where R′—SH represents Gelin-S). A gel formed in approximately three minutes using a final concentration of 4 mM GSSG and 0.4% w/v CMHA-S and 0.4% w/v Gelin-S (Sample 4, Table 1).

[2] = test system: ADSC; experiment: Cell attachment on peptide functionalized CMHA/GSSG hydrogels, ADSC; type: cell-based, human; conditions: 15,000 cells/well, attach overnight, calcein AM
Protocol: After N-terminal maleimido-tagged peptides (Anaspec, Inc. Fremont, CCA) were resuspended in 1×PBS, 1 volume 10 mM peptide was mixed with nine volumes CMHA-S, and reaction was allowed to occur at room temperature in the dark, overnight. GSSG was added to a final concentration of 4 mM (brings peptide final concentration to 0.88 mM) and the mixture allowed to form gels in a 48-well multiwell plate. Unreacted peptides were removed by three washes of at least five volumes 1×PBS at 75 rpm 37° C., for at least 4 hr each. ADSC or BM-MSC in DMEM/10% FBS were then added to each well (15,000 cells/well in a 48 well plate) and allowed to attach overnight. On the final day, the cells were imaged by fluorescence using calcein AM stain.

Row | Compound | gel formation [1] | ADSC attachment [2]
1 | N[C@@H](CS)C(=O)O [cysteine] | did not cause gel formation | –
2 | OC1CSSCC1O (stereo not drawn) [oxidized DT] | did not cause gel formation | –
3 | CRGDS | – | poor robustness
